# Reference: US8148391B2 (Cephalon, Inc., priority 2006, dated 2012)
# Experiments:
# [1] = target: T1, baculovirus-expressed ALK (Homo sapiens, UniProt Q9UM73); test: ALK Kinase Assay (ELISA-type, time-resolved fluorescence); type: biochemical; details: 1 μM ATP (Km level); read-out: ALK Activity (ALK Kinase Inhibition, IC50)
# T1 construct: host or cells: baculovirus expression system
# Outline: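 Wells were coated with phospholipase C-γ at 10 μg/mL in Tris-buffered saline. Adding 30 ng/ml enzyme started the reaction, which ran at 37° C for 15 minutes before Eu-N1 PT66 antibody detection. Percent inhibition versus log10 concentration gave IC50 by variable-slope fit.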
# [2] = target: T2, c-Met (cytoplasmic domain) (Homo sapiens, UniProt P08581); test: c-Met Kinase Assay (same methods as for ALK, with modifications); type: biochemical; details: 1 μM ATP (Km level); read-out: cMet Activity (c-Met Kinase Inhibition, IC50)
# T2 construct: 10 ng/mL c-Met (cytoplasmic domain, Invitrogen Corporation #PV3143); purchased Invitrogen Corporation PV3143
# T2 sequence (P08581 956-1390 limits assumed): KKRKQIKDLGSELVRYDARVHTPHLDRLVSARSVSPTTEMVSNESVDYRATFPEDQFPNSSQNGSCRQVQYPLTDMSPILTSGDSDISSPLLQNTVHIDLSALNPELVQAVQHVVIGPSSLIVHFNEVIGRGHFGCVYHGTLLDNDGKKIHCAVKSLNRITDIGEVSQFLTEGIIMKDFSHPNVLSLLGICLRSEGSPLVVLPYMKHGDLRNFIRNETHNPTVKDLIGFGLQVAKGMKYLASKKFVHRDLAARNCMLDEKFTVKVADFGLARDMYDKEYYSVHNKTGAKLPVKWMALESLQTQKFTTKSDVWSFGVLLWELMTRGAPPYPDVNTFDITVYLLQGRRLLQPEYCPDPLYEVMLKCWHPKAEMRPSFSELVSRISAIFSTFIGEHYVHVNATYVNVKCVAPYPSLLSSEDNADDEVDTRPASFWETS
# Outline: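 IC50 values were fitted by variable-slope sigmoidal regression of percent inhibition against log compound concentration. Phosphorylation was read with Eu-N1 PT66 antibody after a 15 min, 37 °C reaction. The reaction was initiated with 10 ng/mL c-Met cytoplasmic domain on wells coated with 10 μg/mL PLC-γ in TBS.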
# T1 sequence (Q9UM73 19-1620): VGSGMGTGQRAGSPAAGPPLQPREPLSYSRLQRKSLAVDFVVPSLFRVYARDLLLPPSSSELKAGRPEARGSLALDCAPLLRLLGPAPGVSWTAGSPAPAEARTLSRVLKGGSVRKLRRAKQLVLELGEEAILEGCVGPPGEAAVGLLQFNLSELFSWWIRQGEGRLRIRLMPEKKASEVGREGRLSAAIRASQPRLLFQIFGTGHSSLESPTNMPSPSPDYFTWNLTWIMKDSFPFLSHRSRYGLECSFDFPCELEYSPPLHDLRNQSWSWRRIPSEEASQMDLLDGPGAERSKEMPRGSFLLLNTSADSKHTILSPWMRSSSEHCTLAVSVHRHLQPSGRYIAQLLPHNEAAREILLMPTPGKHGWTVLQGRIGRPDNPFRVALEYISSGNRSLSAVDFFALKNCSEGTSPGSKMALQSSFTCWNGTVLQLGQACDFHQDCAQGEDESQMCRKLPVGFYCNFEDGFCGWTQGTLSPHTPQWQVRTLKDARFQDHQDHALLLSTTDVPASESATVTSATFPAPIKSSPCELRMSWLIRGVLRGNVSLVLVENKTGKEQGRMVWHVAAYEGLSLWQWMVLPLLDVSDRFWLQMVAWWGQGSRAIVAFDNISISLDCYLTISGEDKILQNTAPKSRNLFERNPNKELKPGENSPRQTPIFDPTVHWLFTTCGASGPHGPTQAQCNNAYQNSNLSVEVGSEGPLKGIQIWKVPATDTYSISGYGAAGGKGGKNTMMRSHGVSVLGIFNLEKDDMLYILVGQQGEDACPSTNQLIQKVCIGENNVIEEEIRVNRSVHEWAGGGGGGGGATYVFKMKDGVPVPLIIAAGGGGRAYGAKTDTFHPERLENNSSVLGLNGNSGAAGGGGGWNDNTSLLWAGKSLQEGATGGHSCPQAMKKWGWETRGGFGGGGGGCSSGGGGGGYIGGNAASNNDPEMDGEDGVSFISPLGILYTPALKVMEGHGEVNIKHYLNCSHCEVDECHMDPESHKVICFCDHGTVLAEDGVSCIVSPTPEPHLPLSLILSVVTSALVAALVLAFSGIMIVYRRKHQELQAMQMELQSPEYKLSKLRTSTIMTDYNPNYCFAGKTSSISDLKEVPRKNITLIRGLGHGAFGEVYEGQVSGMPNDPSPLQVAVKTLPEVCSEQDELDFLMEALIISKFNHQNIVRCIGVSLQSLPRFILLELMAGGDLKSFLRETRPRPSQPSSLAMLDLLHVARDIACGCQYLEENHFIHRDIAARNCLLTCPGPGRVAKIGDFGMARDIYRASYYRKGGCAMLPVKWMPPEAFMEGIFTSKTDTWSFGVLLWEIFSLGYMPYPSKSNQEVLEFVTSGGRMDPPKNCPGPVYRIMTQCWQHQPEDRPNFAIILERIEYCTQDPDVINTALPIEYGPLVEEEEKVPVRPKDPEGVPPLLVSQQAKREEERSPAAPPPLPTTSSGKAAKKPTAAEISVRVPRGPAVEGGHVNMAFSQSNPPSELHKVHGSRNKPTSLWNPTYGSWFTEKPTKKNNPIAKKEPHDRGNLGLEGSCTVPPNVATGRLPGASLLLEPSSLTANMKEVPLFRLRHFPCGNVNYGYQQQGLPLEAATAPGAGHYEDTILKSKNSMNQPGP
Structure (SMILES),IC50 [1] [nM],IC50 [2] [nM]
"COc1c(Nc2ncc(Cl)c(Nc3ccccc3-n3cccn3)n2)ccc2c1CCC(NCC(F)(F)F)CC2 (stereo not drawn) [Example 690, 5-Chloro-N*2*-[1-methoxy-7-(2,2,2-trifluoro-ethylamino)-6,7,8,9-tetrahydro-5H-benzocyclohepten-2-yl]-N*4*-(2-pyrazol-1-yl-phenyl)-pyrimidine-2,4-diamine]",100 to 1000,> 10000
"COCCNC1CCc2ccc(Nc3ncc(Cl)c(Nc4ccccc4S(=O)(=O)N4CCC(O)C4)n3)c(OC)c2CC1 (stereo not drawn) [Example 695, 1-(2-{5-Chloro-2-[1-methoxy-7-(2-methoxy-ethylamino)-6,7,8,9-tetrahydro-5H-benzocyclohepten-2-ylamino]-pyrimidin-4-ylamino}-benzenesulfonyl)-pyrrolidin-3-ol]",< 100,1000 to 10000
"COCCN(C)C1CCc2ccc(Nc3ncc(Cl)c(N[C@@H]4CCCC[C@H]4NS(C)(=O)=O)n3)c(OC)c2CC1 (stereo partly drawn) [Example 702, N-[(1R,2R)-2-(5-Chloro-2-{1-methoxy-7-[(2-methoxy-ethyl)-methyl-amino]-6,7,8,9-tetrahydro-5H-benzocyclohepten-2-ylamino}-pyrimidin-4-ylamino)-cyclohexyl]-methanesulfonamide]",< 100,> 10000
"COc1c(Nc2ncc(Cl)c(Nc3ccccc3S(=O)(=O)N3CCC(O)C3)n2)ccc2c1CCC(NCCO)CC2 (stereo not drawn) [Example 703, 1-(2-{5-Chloro-2-[7-(2-hydroxy-ethylamino)-1-methoxy-6,7,8,9-tetrahydro-5H-benzocyclohepten-2-ylamino]-pyrimidin-4-ylamino}-benzenesulfonyl)-pyrrolidin-3-ol]",< 100,100 to 1000
"COc1c(Nc2ncc(Cl)c(Nc3ccccc3S(=O)(=O)N3CCCC3)n2)ccc2c1CCC(NCCO)CC2 (stereo not drawn) [Example 704, 2-(2-{5-Chloro-4-[2-(pyrrolidine-1-sulfonyl)-phenylamino]-pyrimidin-2-ylamino}-1-methoxy-6,7,8,9-tetrahydro-5H-benzocyclohepten-7-ylamino)-ethanol]",< 100,100 to 1000
"COc1cc(N2CCOCC2)ccc1Nc1nc(Nc2ccc3c(c2OC)CCC(NCCO)CC3)ncc1Cl (stereo not drawn) [Example 705, 2-{2-[5-Chloro-4-(2-methoxy-4-morpholin-4-yl-phenylamino)-pyrimidin-2-ylamino]-1-methoxy-6,7,8,9-tetrahydro-5H-benzocyclohepten-7-ylamino}-ethanol]",< 100,> 10000
"COCCN1CCOc2ccc(Nc3ncc(Cl)c(N[C@@H]4CCCC[C@H]4NS(C)(=O)=O)n3)cc2C1 [Example 711, N-((1R,2R)-2-{5-Chloro-2-[4-(2-methoxy-ethyl)-2,3,4,5-tetrahydro-benzo[f][1,4]oxazepin-7-ylamino]-pyrimidin-4-ylamino}-cyclohexyl)methanesulfonamide]",< 100,100 to 1000
"CCN1CCN(CC)c2cc(Nc3ncc(Cl)c(Nc4ccc(N5CCOCC5)cc4OC)n3)ccc2C1 [Example 712, 5-Chloro-N*2*-(1,4-diethyl-2,3,4,5-tetrahydro-1H-benzo[e][1,4]diazepin-8-yl)-N*4*-(2-methoxy-4-morpholin-4-yl-phenyl)-pyrimidin-2,4-diamine]",< 100,1000 to 10000
"CCN1CCN(CC)c2cc(Nc3ncc(Cl)c(Nc4ccccc4C(=O)OCCOC)n3)ccc2C1 [Example 713, 2-[5-Chloro-2-(1,4-diethyl-2,3,4,5-tetrahydro-1H-benzo[e][1,4]diazepin-8-ylamino)-pyrimidin-4-ylamino]-benzoic acid 2-methoxy-ethyl ester]",< 100,1000 to 10000
"CCN1CCN(CC)c2cc(Nc3ncc(Cl)c(N[C@@H]4[C@H](C(N)=O)[C@H]5C=C[C@@H]4C5)n3)ccc2C1 [Example 714, (2-exo,3-exo)-3-[5-Chloro-2-(1,4-diethyl-2,3,4,5-tetrahydro-1H-benzo[e][1,4]diazepin-8-ylamino)-pyrimidin-4-ylamino]-bicyclo[2.2.1}hept-5-ene-2-carboxylic acid amide]",< 100,1000 to 10000
"CCN1CCN(CC)c2cc(Nc3ncc(Cl)c(Nc4ccccc4-c4nccn4C)n3)ccc2C1 [Example 715, 5-Chloro-N*2*-(1,4-diethyl-2,3,4,5-tetrahydro-1H-benzo[e][1,4]diazepin-8-yl)-N*4*-[2-(1-methyl-1H-imidazol-2-yl)-phenyl]-pyrimidine-2,4-diamine]",< 100,100 to 1000
"CCN1CCN(CC)c2cc(Nc3ncc(Cl)c(Nc4c(F)cccc4C(=O)NC)n3)ccc2C1 [Example 716, 2-[5-Chloro-2-(1,4-diethyl-2,3,4,5-tetrahydro-1H-1,4-benzodiazepin-8-ylamino)-pyrimidin-4-ylamino]-3-fluoro-N-methyl-benzamide]",< 100,< 100
"CCN1CCN(CC)c2cc(Nc3ncc(Cl)c(N[C@H]4[C@@H]5CC[C@@H](C5)[C@H]4C(N)=O)n3)ccc2C1 [Example 717, (2-exo,3-exo)-3-[5-Chloro-2-(1,4-diethyl-2,3,4,5-tetrahydro-1H-1,4-benzodiazepin-8-ylamino)-pyrimidin-4-ylamino]bicyclo[2.2.1]heptane-2-carboxylic acid amide]",< 100,1000 to 10000
"CCNC(=O)c1ccccc1Nc1nc(Nc2ccc3c(c2)N(CC)CCN(CC)C3)ncc1Cl [Example 718, 2-[5-Chloro-2-(1,4-diethyl-2,3,4,5-tetrahydro-1H-1,4-benzodiazepin-8-ylamino)-pyrimidin-4-ylamino]-N-ethyl-benzamide]",< 100,< 100
"CCN1CCN(CC)c2cc(Nc3ncc(Cl)c(Nc4cc(Cl)ccc4OC)n3)ccc2C1 [Example 719, 5-Chloro-N*4*(5-chloro-2-methoxy-phenyl-N*2*-(1,4-diethyl-2,3,4,5-tetrahydro-1H-benzo[e][1,4]diazepin-8-yl)-pyrimidine)-2,4-diamine]",< 100,1000 to 10000
"CCN1CCN(CC)c2cc(Nc3ncc(Cl)c(N[C@H]4[C@@H](C(N)=O)[C@@H]5C=C[C@H]4C5)n3)ccc2C1 [Example 720, (1S,2S,3R,4R)-3 [5-Chloro-2-(1,4-diethyl-2,3,4,5-tetrahydro-1H-1,4-benzodiazepin-8-ylamino)-pyrimidin-4ylamino]-bicyclo[2.2.1]hept-5-ene-2-carboxylic acid amide]",< 100,1000 to 10000
"CCN1CCN(CC)c2cc(Nc3ncc(Cl)c(Nc4ccc5c(c4)N(CC)CCN(CC)C5)n3)ccc2C1 [Example 721, 5-Chloro-N*2*,N*4*-bis(1,4-diethyl-2,3,4,5-tetrahydro-1H-benzo[e][1,4]diazepin-8-yl)-pyrimidin-2,4-diamine]",< 100,> 10000
"CCN1CCN(CC)c2cc(Nc3ncc(Cl)c(Nc4ccc5c(c4)N(CC)CCN(CC)C5=O)n3)ccc2C1 [Example 722, 8-[5-Chloro-2-(1,4-diethyl-2,3,4,5-tetrahydro-1H-benzo[e][1,4]diazepin-8-ylamino)-pyrimidin-4-ylamino]-1,4-diethyl-1,2,3,4-tetrahydro-benzo[e][1,4]diazepin-5-one]",100 to 1000,> 10000
CCN1CCN(CC)c2cc(Nc3nc(Nc4cc5c(cc4OC)CCN(CC(=O)N(C)C)CC5)ncc3Cl)ccc2C1 [Example 723],< 100,> 10000
"CCN1CCN(CC)c2cc(Nc3nc(Nc4cc5c(cc4OC)CCN(CC(=O)N(C)C)CC5)ncc3Cl)ccc2C1=O [Example 724, 2-{7-[5-Chloro-4-(1,4-diethyl-5-oxo-2,3,4,5-tetrahydro-1H-benzo[e][1,4]diazepin-8-ylamino)-pyrimidin-2-ylamino]-8-methoxy-1,2,3,4-tetrahydro-benzo[d]azepin-3-yl}-N,N-dimethyl-acetamide]",< 100,> 10000
"CCN1CCN(CC)c2cc(Nc3ncc(Cl)c(Nc4ccccc4-n4cccn4)n3)ccc2C1 [Example 725, 5-Chloro-N(2)-(1,4-diethyl-2,3,4,5-tetrahydro-1H-benzo[e][1,4]diazepin-8-yl)-N(4)-(2-pyrazol-1-yl-phenyl)-pyrimidine-2,4-diamine]",< 100,100 to 1000
"CCN1C(=O)CN(CCOC)Cc2cc(OC)c(Nc3ncc(Cl)c(Nc4ccc(N5CCOCC5)cc4OC)n3)cc21 [Example 726, 8-[5-Chloro-4-(2-methoxy-4-morpholin-4-yl-phenylamino)-pyrimidin-2-ylamino]-1-ethyl-7-methoxy-4-(2-methoxy-ethyl)-1,3,4,5-tetrahydro-benzo[e][1,4]diazepin-2-one]",100 to 1000,> 10000
"CCN1C(=O)CN(CC(=O)N(C)C)Cc2cc(OC)c(Nc3ncc(Cl)c(Nc4ccc(N5CCOCC5)cc4OC)n3)cc21 [Example 727, 2-{8-[5-Chloro-4-(2-methoxy-4-morpholin-4-yl-phenylamino)-pyrimidin-2-ylamino]-1-ethyl-7-methoxy-2-oxo-1,2,3,5-tetrahydro-benzo[e][1,4]diazepin-4-yl}-N,N-dimethyl-acetamide]",100 to 1000,> 10000
"CCN1CCN(CC)c2cc(Nc3ncc(Cl)c(Nc4ccccc4S(=O)(=O)C(C)C)n3)ccc2C1 [Example 728, 5-Chloro-N(2)-(1,4-diethyl-2,3,4,5-tetrahydro-1H-benzo[e][1,4]diazepin-8-yl)-N(4)-[2-(propane-2-sulfonyl)-phenyl]-pyrimidine-2,4-diamine]",< 100,100 to 1000
